Where two headings read alike, the source gives them in different places. Peptide text beside a SMILES is read from it.
Experiments:
[1] = tested on: Suspensions of S. mutans; assay: Bactericidal activity in suspensions of S. mutans; assay type: cell-based, Streptococcus mutans; settings: within one hour of incubation; buffer control 10^6 cfu/ml
[2] = tested on: Streptococcus mutans biofilms; assay: Test A: bactericidal activity in bacterial biofilm system; assay type: cell-based; settings: flavoring or sweetening agent added to chlorhexidine composition
Description: Rinse formulations were assessed for their bactericidal activity in a laboratory bacterial biofilm system. Streptococcus mutans biofilms were grown on slides in Trypticase Soy Broth supplemented with 0.5% Yeast Extract (TSB-YE), 1.0% glucose and 2.0% sucrose, and incubated for 48 hr in 5% CO2 at 37° C. Biofilms were exposed to the different formulations for 30 seconds with slow stirring. Biofilms were then extensively washed, harvested, and resuspended in fresh media. Samples were spiral-plated on Mitis-Salivarius agar. Numbers of viable bacteria were determined following standard spiral plating methodology.
The first series of experiments explored the effect of combinations of chlorhexidine-Cu^++ and chlorhexidine-Zn^++ on biofilms of Streptococcus mutans. The chlorhexidine (CHX) used in the experiments depicted in FIG. 1 was made by diluting a chlorhexidine gluconate stock solution (Chlorhexidine gluconate 20% solution, B.P. supplied by Medisca, Inc., 661 Route #3, Unit C, Plattsburg, N.Y. 12901. Telephone 1-800-932-1039) with ultrapure water to form a 0.12% chlorhexidine digluconate solution. […]
Biofilms of S. mutans were made by immersing slides in Trypticase Soy Broth-Yeast Extract (TSB-YE) supplemented with 1.0% glucose and 2.0% sucrose. […] Numbers of viable cells were determined by standard Spiral-plating methodology. […]

[3] = cited from earlier work
[4] = tested on: S. mutans; assay: Test B: effect on ability of S. mutans to produce acid (culture pH over time); assay type: cell-based, Streptococcus mutans; settings: chlorhexidine 0.06%, cupric acetate and zinc chloride 0.1% w/v; TSB-YE with 1.0% glucose
Description: Some oral bacteria are believed to cause cavities by producing acid in the mouth. Therefore, the ability of a composition to prevent and treat cavities can be measured by determining its effects on bacterial acid production.
Accordingly, the effect of representative compositions on the ability of S. mutans to produce acid was also assessed. Biofilms were exposed to CHX-Cu^++ or CHX-Zn^++ as described, then washed, harvested, and resuspended in sterile TSB-YE supplemented with 1.0% glucose at standardized concentrations. Changes in culture pH were measured over time. Representative results of these studies are illustrated in FIG. 3.
The chlorhexidine (CHX) used in the experiments depicted in FIG. 3 was made by diluting a chlorhexidine gluconate stock solution (Chlorhexidine gluconate 20% solution, B.P. supplied by Medisca, Inc., 661 Route #3, Unit C, Plattsburg, N.Y. 12901. Telephone 1-800-932-1039) with ultrapure water to form a 0.12% chlorhexidine digluconate solution. This strength mimics the concentration of chlorhexidine gluconate found in commercial rinses (Peridex®—Zila Pharmaceuticals 5227 N. 7th Street, Phoenix, Ariz. 85014. Telephone (602) 266-6700) available in the United States.
Chlorhexidine was at a concentration of 0.06%, and cupric acetate and zinc chloride were at concentrations of 0.1% w/v. Exposure of chlorhexidine alone had little effect on acid production. […]

[5] = 0.12% rinse; Drug Facts and Comparisons, 1999; cited from earlier work

SMILES: N=C(NCCCCCCNC(=N)NC(=N)Nc1ccc(Cl)cc1)NC(=N)Nc1ccc(Cl)cc1.O=C(O)[C@H](O)[C@@H](O)[C@H](O)[C@H](O)CO.O=C(O)[C@H](O)[C@@H](O)[C@H](O)[C@H](O)CO [Chlorhexidine gluconate (0.12% CHX)]
- viable count after exposure [1]: 0 cfu/ml

SMILES: COC(=O)[C@H](Cc1ccccc1)NC(=O)[C@@H](N)CC(=O)O [aspartame] (HELM PEPTIDE1{D.F.[CO[*:1]]}$$$$V2.0)
- effect of additive on the antibacterial activity of the chlorhexidine oral composition [2]: do not significantly decrease
- solubility in water ([3]; 20° C.): approximately 1%
- solubility in water ([3]; 50° C.): ~3%

SMILES: [H]/N=C(\N/C(=N/[H])NCCCCCCNC(=N)NC(=N)Nc1ccc(Cl)cc1)Nc1ccc(Cl)cc1 [chlorhexidine]
- effect on acid production (pH curves) [4]: little effect
- chlorhexidine retained in the oral cavity following rinsing [5]: Approximately 30%

Reference: patent US20050191247A1, “Chlorhexidine compositions” (priority 2004, published 2005)
